Source: publication PMC8759730, “Targeting allosteric sites of human aromatase: a comprehensive in-silico and in-vitro workflow to find potential plant-based anti-breast cancer therapeutics” (Journal of Enzyme Inhibition and Medicinal Chemistry, 2021)
Where two headings read alike, the source gives them in different places.

How the values were obtained:
[1] = target: T1, Recombinant Human Aromatase (HA) (Homo sapiens, UniProt P11511); assay: HA inhibition assay (Aromatase Inhibitor Screening Kit, fluorogenic substrate); assay type: biochemical; details: for Ki: values inside parenthesis, unit inferred, read-out: HA (Ki), inhibition constant (converted)
T1 sequence (P11511 1-503): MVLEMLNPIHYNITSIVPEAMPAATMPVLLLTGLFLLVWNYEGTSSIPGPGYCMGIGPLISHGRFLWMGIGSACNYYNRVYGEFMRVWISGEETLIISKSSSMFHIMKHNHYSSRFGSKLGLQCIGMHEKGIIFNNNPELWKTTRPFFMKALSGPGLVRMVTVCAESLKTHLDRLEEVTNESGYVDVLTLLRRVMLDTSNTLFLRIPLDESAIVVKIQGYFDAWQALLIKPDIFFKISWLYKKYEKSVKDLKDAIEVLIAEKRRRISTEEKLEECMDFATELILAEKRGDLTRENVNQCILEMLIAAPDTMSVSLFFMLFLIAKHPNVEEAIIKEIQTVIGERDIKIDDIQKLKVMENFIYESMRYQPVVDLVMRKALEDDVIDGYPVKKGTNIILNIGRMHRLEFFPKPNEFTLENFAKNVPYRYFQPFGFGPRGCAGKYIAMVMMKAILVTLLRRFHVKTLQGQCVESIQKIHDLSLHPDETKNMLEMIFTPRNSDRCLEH

MCF-7 (ER+) cells = assay: Antiproliferative assay, MCF-7; assay type: cell-based; details: for IC50: read-out: MCF-7 IC50
MDA-MB-231 (ER-) cells = assay: Antiproliferative assay, MDA-MB-231; assay type: cell-based
[2] = tested at 200-0.1 µM, triplicate, read-out: HA IC50
[3] = Homo sapiens, MDA-MB-231, 72 h, read-out: MDA-MB-231 IC50
[4] = kinetic experiments at varied substrate concentration
[5] = Homo sapiens, MCF7, 72 h, 72 h, with 10 µM testosterone undecanoate
[6] = Homo sapiens, MDA-MB-231, 72 h, 72 h; read-out: MDA-MB-231 IC50

## CC1=CC(=O)CC(C)(C)[C@@]1(O)/C=C/C(C)=C\C(=O)O [Abscisic acid]
[1]
  HA inhibitory activity (in words): inactive
[1]; [2]
  IC50: > 100 µM
MCF-7 (ER+) cells
  Activity against MCF-7 (in words): inactive
MCF-7 (ER+) cells; Homo sapiens, MCF7, 72 h
  IC50: > 100 µM
MDA-MB-231 (ER-) cells
  Activity against MDA-MB-231 (in words): inactive
MDA-MB-231 (ER-) cells; [3]
  IC50: > 100 µM

## O=c1cc(-c2ccc(O)cc2)oc2cc(O)cc(O)c12 [Apigenin]
MCF-7 (ER+) cells; Homo sapiens, MCF7, 72 h
  IC50: 13.6 ± 3.5 µM
MDA-MB-231 (ER-) cells; [3]
  IC50: 60 ± 1.6 µM

## COc1ccc2cc3[n+](cc2c1OC)CCc1cc2c(cc1-3)OCO2 [Berberine]
[1]; [4]
  Mode of inhibition: Non-competitive
[1]; kinetic experiments at varied substrate concentration, listed as berberine
  Mode of inhibition: non-competitive inhibition
[1]; [2]
  IC50: 21.4 ± 0.9 µM
[1]
  Ki: 20.1 µM
MCF-7 (ER+) cells; [5]
  IC50: 10.2 ± 2.6 µM
MDA-MB-231 (ER-) cells; [6]
  IC50: > 100 µM

## C=C(C)[C@@H]1CC[C@]2(CO)CC[C@]3(C)[C@H](CC[C@@H]4[C@@]5(C)CC[C@H](O)C(C)(C)[C@@H]5CC[C@]43C)[C@@H]12 [Betulin]
[1]
  HA inhibitory activity (in words): very weak inhibitory activity
  IC50: 95.3 µM
  Mode of inhibition: Non-competitive
MCF-7 (ER+) cells
  Activity against MCF-7 (in words): very weak inhibitory activity
MCF-7 (ER+) cells; Homo sapiens, MCF7, 72 h
  IC50: 67 ± 2.6 µM
MDA-MB-231 (ER-) cells
  Activity against MDA-MB-231 (in words): very weak inhibitory activity
MDA-MB-231 (ER-) cells; Homo sapiens, MDA-MB-231, 72 h; read-out: MDA-MB-231 IC50
  IC50: > 100 µM

## O=c1cc(-c2ccccc2)oc2cc(O)cc(O)c12 [Chrysin]
MCF-7 (ER+) cells; [5]
  IC50: 7.8 ± 2.8 µM
MDA-MB-231 (ER-) cells; [6]
  IC50: 65 ± 2.3 µM

## N#Cc1ccc(C(c2ccc(C#N)cc2)n2cncn2)cc1 [Letrozole, reference compound]
MCF-7 (ER+) cells; [5]
  IC50: 5.6 ± 1.1 µM
MDA-MB-231 (ER-) cells; [6]
  IC50: 41.3 ± 2.1 µM

## CC(C)=CCc1c2c(c3occ(-c4ccc(O)c(O)c4)c(=O)c3c1O)C=CC(C)(C)O2 [Pomiferin]
[1]; [4]
  Mode of inhibition: Non-competitive
[1]; kinetic experiments at varied substrate concentration, listed as pomiferin
  Mode of inhibition: non-competitive inhibition
[1]; [2]
  IC50: 15.1 ± 0.5 µM
[1]
  Ki: 14.8 µM
MCF-7 (ER+) cells; [5]
  IC50: 5.4 ± 2.2 µM
MDA-MB-231 (ER-) cells; [6]
  IC50: 30.9 ± 3.1 µM

## Oc1ccc(/C=C/c2cc(O)cc(O)c2)cc1 [Resveratrol]
MCF-7 (ER+) cells; [5]
  IC50: 11 ± 2.2 µM
MDA-MB-231 (ER-) cells; [6]
  IC50: 38 ± 3.5 µM

## C[C@@H]1O[C@@H](OC[C@H]2O[C@@H](Oc3c(-c4ccc(O)c(O)c4)oc4cc(O)cc(O)c4c3=O)[C@H](O)[C@@H](O)[C@@H]2O)[C@H](O)[C@H](O)[C@H]1O [Rutin]
[1]
  HA inhibitory activity (in words): inactive
[1]; [2]
  IC50: > 100 µM
MCF-7 (ER+) cells
  Activity against MCF-7 (in words): inactive
MCF-7 (ER+) cells; [5]
  IC50: > 100 µM
MDA-MB-231 (ER-) cells
  Activity against MDA-MB-231 (in words): inactive
MDA-MB-231 (ER-) cells; [6]
  IC50: > 100 µM

## COc1ccc(-c2cc(=O)c3c(OC)c(OC)c(OC)c(OC)c3o2)cc1 [Tangeretin]
[1]
  HA inhibitory activity (in words): inactive
[1]; [2]
  IC50: > 100 µM
MCF-7 (ER+) cells; [5]
  IC50: 30.3 ± 2.1 µM
MDA-MB-231 (ER-) cells; [6]
  IC50: 45.6 ± 3.8 µM

## Cc1coc2c1C(=O)C(=O)c1c-2ccc2c1CCCC2(C)C [Tanshinone IIA]
[1]; [4]
  Mode of inhibition: Non-competitive
[1]; [2]
  IC50: 42.5 ± 1.2 µM
[1]
  Ki: 40.9 µM
MCF-7 (ER+) cells; 72 h, with 10 µM testosterone undecanoate
  IC50: 1.4 ± 1.3 µM
MCF-7 (ER+) cells; [5]
  IC50: ~2.1 µM
MDA-MB-231 (ER-) cells; 72 h; read-out: MDA-MB-231 IC50
  IC50: 3.7 ± 1.7 µM
MDA-MB-231 (ER-) cells; [6]
  IC50: ~2.1 µM
